# Results: patent US20250114355A1, “TREATING LIVER DISEASE” (Mayo Foundation for Medical Education and Research, priority 2021, published 2025)
# “Also recorded” adds a separate entry of the source.
# Assays:
# HHSEC = assay: Colorimetric (XTT) cell viability assay in HHSEC; format: cell-based, human; conditions: for toxicity to HHSEC (ranking): XTT viability, FIG. 33B
# Procedure: Cell viability assay was performed with a XTT Viability Kit (Cell Signaling Technology, 9095) according to the manufacturer's instructions. HHSEC were seeded in three black-walled 96-well plates (Corning, 3603) with cell density≥12,000 cells per well.
# The cells were incubated for 24 hours at 37° C., 5% CO2 in endothelial growth media (Cell Application Inc, 211-500). After 24 hours, old media was removed and 100 μL of fresh media was added to each well. Drugs were dissolved in DMSO; a 1.1 mM stock solution was made by diluting drug in DPBS (11% DMSO, v/v). The 1.1 mM stock was serially diluted with 3-fold dilutions. DMSO volumes were balanced to 11% DMSO (v/v). A multichannel pipette was used to add 10 μL of drug or control stocks simultaneously (i.e., one column per drug per plate). The final maximum concentration of drug was 100 μM. Plates were incubated for 21 hours at 37° C., 5% CO2. After incubation, 50 μL of XTT solution were added to each well and incubated for three hours to maximize differences in signal. Absorbance was measured at 462 and 620 nm with a spectrophotometer (Molecular Devices, Spectramax Plus 384). Background absorbance at 620 nm was subtracted from maximum peak at 462 nm.
# [1] = tested on: CXCL chemokine expression in LSECs; assay: CXCL chemokine expression by qPCR in LSECs with or without TNFα stimulation; format: cell-based, human; conditions: LSECs pretreated with inhibitor
# Procedure: LSECs were thawed and cultured according to standard cell culture conditions and according to manufacture instruction (ScienCell). Briefly, LSECs are plated at low confluency and cultured in Endothelial cell medium (Cell 211-500). Fresh medium changed every other day and cells are split when close to confluency. For TNFα stimulation experiments, low passage cells were plated at 70% confluency and cultured overnight. Serum starvation was performed by changing cells to low-serum medium (0.5% FBS in basal endothelial medium (Lonza CC-3121)) for 2 hours. Human TNFα at concentration 10 ng/mL was added to low-serum medium and incubated with cells for 90 minutes before cells were collected and assayed for downstream analysis. […] Inhibitors were added at concentrations indicated to low-serum medium, and cells were incubated in inhibitor containing medium for 2 hours. After inhibitor treatment, medium change was performed with TNFα (Peprotech 300-01A) at 10 ng/ml or control low-serum medium for 90 minutes incubation. LSECs were then collected for analysis.
# mRNA levels were quantified by real-time reverse transcription PCR. RNA extraction was performed with RNeasy kit (Qiagen 74104) from cells and mouse tissue according to the manufacturer's instructions. RNA Quantification was performed with spectrophotometry (NanoDrop, Thermo Scientific). […]
# [2] = tested on: alcohol/LPS-induced liver inflammation; assay: Multiple alcohol binge with LPS mouse model; format: in vivo, mice; conditions: UMN627 22 mg/kg IP
# Procedure: (§1) mRNA levels were quantified by real-time reverse transcription PCR. RNA extraction was performed with RNeasy kit (Qiagen 74104) from cells and mouse tissue according to the manufacturer's instructions. RNA Quantification was performed with spectrophotometry (NanoDrop, Thermo Scientific). 500 ng of mRNA was used for cDNA synthesis with dNTP and oligo primer using SuperScript™ III (Invitrogen 18080-093) for reverse transcription per the manufacturer's protocol. Real-Time PCR was performed from cDNA using IQ SYBR Green Mix (Biorad 1725121) on the 7500 Real-Time PCR system (Applied Biosystems), according to the manufacturer's instructions. Amplification of GAPDH and B-actin was performed for respective samples as internal controls. Each experiment was done in duplicates.
# Right lobes of all mouse livers were fixed in 10% formalin and embedded in paraffin and cut into 5 μm sections. Slides were deparaffinized and underwent antigen retrieval (IHC-Tek IW-1000). Slides were treated with hydrogen peroxide for 10 minutes before blocking in 5% bovine serum albumin in phosphate-buffered saline (PBS) for 1 hour at room temperature. Samples were then incubated overnight at 4° C. with rabbit anti-MPO antibody (Abcam ab9535) at 1:25. Slides were then blocked with Avidin and Biotin (Vector SP-2001) for 15 minutes each before treatment with biotinylated secondary antibody horse anti-Rabbit (Vector BA-1100) at 1:200 for 1 hour at room temperature. Slides were then treated with
# ABC reagent (Vector PK-7100) for 30 minutes before treatment with DAB reagent (Vector SK-4100) for 5 minutes. Counterstain was performed with hematoxylin stain and dehydrated in ethanol and xylene. Images were acquired using a Zeiss LSM 780 confocal microscope at 10× magnification, 5 images per slide (Carl Zeiss MicroImaging, Jena, Germany).
# Liver sections from the left lobe of all mouse livers were embedded in OCT (Sakura 4583) and flash frozen. Frozen tissue was sectioned into 10 μm slices, fixed in 10% formalin and stained with BODIPY 493/503 (Invitrogen D3922) or Oil-red (Sigma 00625) and counterstained with 4′,6-diamidino-2-phenylindole (DAPI) (Sigma D9542) or hematoxylin, respectively. Representative images were obtained with microscopy in one session under same settings (Carl Zeiss MicroImaging, Jena, Germany), 3 images per slide. The proportion of tissue stained with BODIPY, or Oil-red content was quantified with ImageJ macro commands for standardization. For BODIPY staining, FITC channel intensity was measured across the whole image, and average intensities of images were normalized to the average of all control samples. For Oil Red staining, red staining was quantified above a pre-selected threshold, and average intensities of images were normalized to the average of all control samples. […]
# BRD4 BD1 = BRD4 BD1 (Homo sapiens, UniProt O60885); assay: BRD4 BD1 affinity (IC50); format: binding; conditions: ratio of BD2 and BD1 IC50
# [3] = tested on: CXCL1 and CCL2 mRNA expression; assay: Murine LPS model of mild liver inflammation, qPCR of CXCL1 and CCL2 mRNA; format: in vivo; conditions: mice, drug given one hour before LPS; for CCL2 mRNA expression versus LPS control: several doses
# Procedure: as §1, with “BRD4 inhibitors” for “mRNA levels”, “introduced to murine models of mild liver inflammation induced” for “quantified”, “LPS. The BRD4 inhibitors acted as prophylactic agents to prevent the increased expression of CXCL1 and CCL2. […]” for “real-time reverse transcription PCR.”
# [4] = among treatment groups, 22 mg/kg
smiles,measurement,setting,value
Cc1nnn(C2CCN(CCN(C)C)CC2)c1-c1cccc(Oc2cc(Br)ccc2Br)n1 [AC6026],toxicity to HHSEC (ranking),HHSEC,least toxic
Cc1cc(C)cc(Nc2nccc(-c3c(-c4ccc(C(F)(F)F)cc4)ncn3C3CCN(CCN)CC3)n2)c1 [UMN627],CXCL chemokine expression in LSECs,[1],showed efficacy in CXCL suppression
same,liver neutrophil infiltration (MPO IHC),[2]; alcohol binges/LPS mice,Attenuated
same,liver CXCL chemokine (and Ly6g) expression by qPCR,"[2]; alcohol binges/LPS mice, 22 mg/kg",attenuated
same,serum ALT levels,[2]; [4],no significant changes; also recorded: did not show statistical difference
same,steatosis (BODIPY 493/503 staining),[2]; [4],no significant changes; also recorded: not significantly correlated
same,affinity for BRD4 BD1 over BRD4 BD2,BRD4 BD1,over 20 fold
same,IC50 for CCL2 mRNA expression,[3],8.8 mg/kg
same,IC50 for CXCL1 mRNA expression,[3],10.9 mg/kg
same,CCL2 mRNA expression versus LPS control,[3],No significant differences were found
Cc1cc(C)cc(Oc2cccc(-c3c(C)nnn3C3CCNCC3)n2)c1 [AC4118],toxicity to HHSEC (ranking),HHSEC,least toxic
same,IC50 for chemokine expression (chemokine not specified),[3],< 5 mg/kg
same,CCL2 mRNA expression versus LPS control,[3],significantly reduced CCL2 expression at higher concentrations compared to UMN627
Cc1cc(C)cc(Oc2cccc(-c3c(C)nnn3C3CCN(CCN(C)C)CC3)n2)c1 [AC6027],toxicity to HHSEC (ranking),HHSEC,least toxic
CCc1cc(C)cc(Oc2nccc(-c3c(-c4ccc(C(F)(F)F)cc4)ncn3[C@H]3CCN(CCN(C)C)C3)n2)c1 [9-209],toxicity to HHSEC (ranking),HHSEC,least toxic
Cc1cc(C)cc(Nc2nccc(-c3c(-c4ccc(C(F)(F)F)cc4)ncn3C3CCN(CCCN(C)CCNC(=O)CN4CCC(n5nnc(C)c5-c5cccc(Oc6cc(C)cc(C)c6)n5)CC4)CC3)n2)c1 [9-169],EC50,"HHSEC; Homo sapiens, read-out: EC50, concentration that causes 50% toxicity to HHSEC, XTT, 21 + 3 hours incubation",< 4 µM
CCc1cc(C)cc(Oc2nccc(-c3c(-c4ccc(C(F)(F)F)cc4)ncn3C3CCN(CCN(C)C)CC3)n2)c1 [9-73],toxicity to HHSEC (ranking),HHSEC,least toxic
